Laboratory results published in patent publication US20250011809A1, “VIRAL VECTOR PRODUCTION” (Cell Therapy Catapult Limited, priority 2021, published 2025).
Several values for one entry are separate records, joined by “and”; a condition that tells them apart may be missing. Equal values may be shown once. Ends that are not written are not given here.

What was measured:
Format in all cases: cell-based, human
[1] = tested on: HEK293 cells; assay: Viability of adherent HEK293 cells after transfection with GFP reporter plasmid (Example 1); settings: 3 days after transfection with 50 ng GFP plasmid; RALA N:P10, PEIpro 3:1; FIG. 1
Experimental: HEK293 cells were seeded at a density of 1×10^5 cells per well on 24 well plates. 24 hrs later, cells were transfected with 50 ng of plasmid encoding a GFP reporter gene, either complexed with RALA (SEQ ID NO: 1) at N:P10 (14.5 μg of RALA is complexed per 1 μg of DNA) or using PEIpro at a 3:1 ratio. The cells were stained to assess cell viability after 3 days.

[2] = HEK293-F cell count and viability by flow cytometry after transfection in suspension culture (Example 5); design: viability at 24 h / viability at 48 h / viability at 72 h: concentration or dose not given beside the values; settings: human, HEK293-F cells in suspension culture (shake flasks); for viability at 24 h: 24 h post-transf; for viability at 48 h: 48 h post-transf; for viability at 72 h: 72 h post-transf
Experimental: (§1) HEK293-F cells were seeded into shake flasks with a 20 mL serum-free BalanCD medium at working volume at a cell concentration of 1×10^6/mL for lentiviral production and 2×10^6/mL for AAV production. Transfection with the plasmids for AAV1, AAV2, LV (two experimental replicates, LV1 and LV2) were carried out using PEI-Pro or RALA peptides as set out in Table 8 below.
(§2) The HEK293-F cell counts were determined using flow cytometry immediately prior to transfection, and then at 24 hrs, 48 hrs and 72 hrs post transfection.

[3] = tested on: HEK293-F cells; assay: as above; design: viability at 24 h / viability at 48 h / viability at 72 h: concentration or dose not given beside the values
Experimental: as §1, §2

[4] = AAV1 plasmids, 24 h post-transf
[5] = AAV1 plasmids, 48 h post-transf
[6] = AAV1 plasmids, 72 h post-transf
[7] = AAV2 plasmids, 24 h post-transf
[8] = AAV2 plasmids, 48 h post-transf

WEARLARALARALARHLARALARALRACEA [RALA]
viability of adherent HEK293 cells [1]: significantly greater
viability at 24 h ([2]; AAV1 plasmids): 90%
viability at 48 h ([2]; AAV1 plasmids): 86.1%
viability at 72 h ([2]; AAV1 plasmids): 83.1%
viability at 24 h ([2]; AAV2 plasmids): 87.7%
viability at 48 h ([2]; AAV2 plasmids): 81.6%
viability at 72 h ([2]; AAV2 plasmids): 76%
viability at 24 h ([2]; LV plasmids): 92%
viability at 48 h ([2]; LV plasmids): 92%
Count [3, 4]: 3.63E+06 and 3.52E+06
Via % [3, 4]: 88.2%
Count [3, 5]: 4.14E+06 and 3.39E+06
Via % [3, 5]: 83.9%
Count [3, 6]: 5.82E+06 and 5.55E+06
Via % [3, 6]: 82.5%
Count [3, 7]: 3.57E+06 and 3.37E+06
Via % [3, 7]: 89.1%
Count [3, 8]: 3.81E+06 and 4.07E+06
Via % [3, 8]: 84.8%
Via % ([3]; AAV2 plasmids, 72 h post-transf): 76.5%
Count ([3]; LV plasmids, 24 h post-transf): 2.31E+06 and 2.05E+06
Via % ([3]; LV plasmids, 24 h post-transf): 92.7%
Count ([3]; LV plasmids, 48 h post-transf): 3.42E+06 and 2.83E+06
Via % ([3]; LV plasmids, 48 h post-transf): 88.6%
Via % ([3]; LV plasmids, 72 h post-transf): 89.6% and 86%
